Results published in patent US9550781B2, “Kinase modulating compounds, compositions containing the same and use thereof” (CENTAURUS BIOPHARMA CO., LTD., priority 2011, dated 2017).

Molecular target: recombinant B-RAF enzyme (Homo sapiens (Human), UniProt P15056)
Assay: In vitro B-RAF Kinase Assay (HTRF), IC50 determination
Assay type: biochemical
Conditions: 6HIS-Mek1 substrate, 60 min at 23° C.
Experimental: In vitro B-RAF Kinase Assay. To determine in vitro activities of recombinant B-RAF enzyme, a Homogeneous Time-Resolved Fluorescence (HTRF) assay was performed. […] Meanwhile, an Anti-6HIS-d2 antibody (Anti-6HIS-d2, Cisbio international) was added to detection system. When the two antibodies were close enough, energy, transfer was happened between Eu and d2, then activities of enzyme was determine by measuring fluorescence intensity (320 nm excitation, 665 nm emission).
IC50 determination. To evaluate in vitro potency of compounds against B-RAF enzyme, the IC50 values of compounds of this invention were determined. Compounds were 3-fold serially diluted with 100% DMSO from 1 mM, then 4 ml of compounds were transferred to 96 ml of reaction buffer (50 mM HEPES pH7.4, 10 mM MgCl2, 1 mM EGTA, 0.01% Tween-20, 0.005% BAS, 2 mM DTT). […] Then 2.5 ml of 4×ATP (2 mM) was added to the reaction system and initiated the reaction. The assay plate was incubated in an incubator for 60 min at 23° C., then the reaction was terminated by adding 5 ml of detection solution containing Eu3+ cryptate-labeled anti-phosphotyrosine PT66 antibody, and 5 ml of Anti-6HIS-d2 antibody. The plate was incubated for 1 h at 23° C. and the fluorescent signal was read with an EnVision multilable plate reader (PerkinElmer). IC50 values of compounds were generated using GraFit software (Version 6.0).

Chain of recombinant B-RAF enzyme (P15056 whole entry, species assumed): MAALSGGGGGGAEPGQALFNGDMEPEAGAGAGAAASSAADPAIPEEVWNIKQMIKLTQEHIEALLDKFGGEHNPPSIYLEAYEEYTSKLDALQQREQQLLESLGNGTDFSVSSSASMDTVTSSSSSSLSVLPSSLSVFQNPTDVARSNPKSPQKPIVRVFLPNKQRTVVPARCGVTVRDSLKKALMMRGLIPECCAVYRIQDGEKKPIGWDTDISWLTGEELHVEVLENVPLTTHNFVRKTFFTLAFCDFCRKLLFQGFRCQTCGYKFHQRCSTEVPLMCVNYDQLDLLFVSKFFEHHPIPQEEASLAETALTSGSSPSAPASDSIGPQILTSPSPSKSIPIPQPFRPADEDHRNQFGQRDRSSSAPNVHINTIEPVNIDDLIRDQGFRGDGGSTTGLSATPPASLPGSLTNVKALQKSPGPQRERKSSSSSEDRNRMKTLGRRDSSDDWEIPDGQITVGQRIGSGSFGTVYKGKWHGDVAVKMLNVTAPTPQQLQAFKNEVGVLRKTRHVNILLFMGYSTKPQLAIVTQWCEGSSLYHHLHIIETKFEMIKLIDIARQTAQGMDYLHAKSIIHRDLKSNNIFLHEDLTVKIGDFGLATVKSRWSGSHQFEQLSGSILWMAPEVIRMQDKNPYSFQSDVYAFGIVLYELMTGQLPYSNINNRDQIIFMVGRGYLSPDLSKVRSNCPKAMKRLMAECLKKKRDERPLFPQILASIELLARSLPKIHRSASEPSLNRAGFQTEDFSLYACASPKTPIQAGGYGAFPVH

IC50 [nM] | Compound
< 500 | CCCS(=O)(=O)Nc1ccc(F)c(Nc2ncccc2-c2ncnc3[nH]c(C)nc23)c1F [Example 3, N-(2,4-difluoro-3-(3-(8-methyl-9H-purin-6-yl)pyridin-2-ylamino)phenyl)propane-1-sulfonamide]
< 100 | CCCS(=O)(=O)Nc1ccc(F)c(Nc2ncccc2-c2ncnc3[nH]cnc23)c1 [Example 4, N-(3-(3-(9H-purin-6-yl)pyridin-2-ylamino)-4-fluorophenyl)propane-1-sulfonamide]
< 100 | CCCS(=O)(=O)Nc1ccc(Cl)c(Nc2ncccc2-c2ncnc3[nH]cnc23)c1 [Example 5, N-(3-(3-(9H-purin-6-yl)pyridin-2-ylamino)-4-chlorophenyl)propane-1-sulfonamide]
< 100 | CCCS(=O)(=O)Nc1ccc(C)c(Nc2ncccc2-c2ncnc3[nH]cnc23)c1 [Example 6, N-(3-(3-(9H-purin-6-yl)pyridin-2-ylamino)-4-methylphenyl)propane-1-sulfonamide]
< 100 | CCCS(=O)(=O)Nc1ccc(Cl)c(Nc2ncccc2-c2ncnc3[nH]cnc23)c1F [Example 7, N-(3-(3-(9H-purin-6-yl)pyridin-2-ylamino)-4-chloro-2-fluorophenyl)propane-1-sulfonamide]
< 100 | CCCS(=O)(=O)Nc1ccc(F)c(Nc2ncccc2-c2ncnc3[nH]cnc23)c1Cl [Example 8, N-(3-(3-(9H-purin-6-yl)pyridin-2-ylamino)-2-chloro-4-fluorophenyl)propane-1-sulfonamide]
< 100 | O=S(=O)(CCCF)Nc1ccc(Cl)c(Nc2ncccc2-c2ncnc3[nH]cnc23)c1F [Example 9, N-(3-(3-(9H-purin-6-yl)pyridin-2-ylamino)-4-chloro-2-fluorophenyl)-3-fluoropropane-1-sulfonamide]
< 100 | O=S(=O)(CCCF)Nc1ccc(F)c(Nc2ncccc2-c2ncnc3[nH]cnc23)c1F [Example 10, N-(3-(3-(9H-purin-6-yl)pyridin-2-ylamino)-2,4-difluorophenyl)-3-fluoropropane-1-sulfonamide]
< 500 | O=S(=O)(CCl)Nc1ccc(F)c(Nc2ncccc2-c2ncnc3[nH]cnc23)c1F [Example 11, N-(3-(3-(9H-purin-6-yl)pyridin-2-ylamino)-2,4-difluorophenyl)-1-chloromethanesulfonamide]
< 1000 | CCS(=O)(=O)Nc1ccc(F)c(Nc2ncccc2-c2ncnc3[nH]cnc23)c1F [Example 12, N-(3-(3-(9H-purin-6-yl)pyridin-2-ylamino)-2,4-difluorophenyl)ethanesulfonamide]
< 500 | O=S(=O)(Nc1ccc(F)c(Nc2ncccc2-c2ncnc3[nH]cnc23)c1F)c1ccc(F)c(F)c1 [Example 14, N-(3-(3-(9H-purin-6-yl)pyridin-2-ylamino)-2,4-difluorophenyl)-3,4-difluorobenzenesulfonamide]
< 500 | O=S(=O)(Nc1ccc(F)c(Nc2ncccc2-c2ncnc3[nH]cnc23)c1F)c1ccc(Cl)cc1 [Example 17, N-(3-(3-(9H-purin-6-yl)pyridin-2-ylamino)-2,4-difluorophenyl)-4-chlorobenzenesulfonamide]
< 100 | O=S(=O)(CCC(F)(F)F)Nc1ccc(F)c(Nc2ncccc2-c2ncnc3[nH]cnc23)c1F [Example 18, N-(3-(3-(9H-purin-6-yl)pyridin-2-ylamino)-2,4-difluorophenyl)-3,3,3-trifluoropropane-1-sulfon amide]
< 500 | C=CS(=O)(=O)Nc1ccc(F)c(Nc2ncccc2-c2ncnc3[nH]cnc23)c1F [Example 20, N-(3-(3-(9H-purin-6-yl)pyridin-2-ylamino)-2,4-difluorophenyl)ethenesulfonamide]
< 500 | O=S(=O)(Nc1ccc(F)c(Nc2ncccc2-c2ncnc3[nH]cnc23)c1F)C1CC1c1ccccc1 (centres unmarked) [Example 21, N-(3-(3-(9H-purin-6-yl)pyridin-2-ylamino)-2,4-difluorophenyl)-2-phenylcyclopropane-1-sulfonamide]
< 1000 | COc1ccc(C2CC2S(=O)(=O)Nc2ccc(F)c(Nc3ncccc3-c3ncnc4[nH]cnc34)c2F)cc1 (centres unmarked) [Example 22, N-(3-(3-(9H-purin-6-yl)pyridin-2-ylamino)-2,4-difluorophenyl)-2-(4-methoxyphenyl)cyclopropane-1-sulfonamide]
< 1000 | O=S(=O)(Nc1ccc(F)c(Nc2ncccc2-c2ncnc3[nH]cnc23)c1F)c1ccc(F)cc1 [Example 23, N-(3-(3-(9H-purin-6-yl)pyridin-2-ylamino)-2,4-difluorophenyl)-4-fluorobenzenesulfonamide]
< 100 | O=S(=O)(Nc1ccc(F)c(Nc2ncccc2-c2ncnc3[nH]cnc23)c1F)c1ccsc1 [Example 24, N-(3-(3-(9H-purin-6-yl)pyridin-2-ylamino)-2,4-difluorophenyl)thiophene-3-sulfonamide]
< 500 | CCCS(=O)(=O)Nc1ccc(F)c(Nc2ncccc2-c2ncnc3[nH]ncc23)c1F [Example 25, N-(3-(3-(1H-pyrazolo[3,4-d]pyrimidin-4-yl)pyridin-2-ylamino)-2,4-difluorophenyl)propane-1-sulfonamide]
< 500 | CCCS(=O)(=O)Nc1ccc(F)c(Nc2ncccc2-c2ncnc3[nH]ccc23)c1F [Example 26, N-(3-(3-(7H-pyrrolo[2,3-d]pyrimidin-4-yl)pyridin-2-ylamino)-2,4-difluorophenyl)propane-1-sulfonamide]
< 100 | CCCS(=O)(=O)Nc1ccc(C)c(Nc2ccccc2-c2ncnc3[nH]cnc23)c1 [Example 27, N-(3-(2-(9H-purin-6-yl)phenylamino)-4-methylphenyl)propane-1-sulfonamide]
< 1000 | CCCS(=O)(=O)Nc1ccc(F)c(Nc2ccccc2-c2ncnc3[nH]cnc23)c1F [Example 28, N-(3-(2-(9H-purin-6-yl)phenylamino)-2,4-difluorophenyl)propane-1-sulfonamide]

Compound | IC50 [nM]
CCCS(=O)(=O)Nc1ccc(F)c(Nc2ncccc2-c2ncnc3[nH]cnc23)c1F [Example 1, N-(3-(3-(9H-purin-6-yl)pyridin-2-ylamino)-2,4-difluorophenyl)propane-1-sulfonamide] | < 100
CS(=O)(=O)Nc1ccc(F)c(Nc2ncccc2-c2ncnc3[nH]cnc23)c1F [Example 13, N-(3-(3-(9H-purin-6-yl)pyridin-2-ylamino)-2,4-difluorophenyl)methanesulfonamide] | < 500
O=S(=O)(Nc1ccc(F)c(Nc2ncccc2-c2ncnc3[nH]cnc23)c1F)c1ccccc1 [Example 15, N-(3-(3-(9H-purin-6-yl)pyridin-2-ylamino)-2,4-difluorophenyl)benzenesulfonamide] | < 100
O=S(=O)(CC(F)(F)F)Nc1ccc(F)c(Nc2ncccc2-c2ncnc3[nH]cnc23)c1F [Example 19, N-(3-(3-(9H-purin-6-yl)pyridin-2-ylamino)-2,4-difluorophenyl)-2,2,2-trifluoromethanesulfonamide] | < 100
